# Tested on: 855422-203-R-J1-PDC complex spheroid growth
# Experiment: Anticancer human tumor 855422-203-R-J1-PDC patient-derived bladder carcinoma cell line growth inhibition [AhR]
# Settings: for IC50: curve of first compound; for viability, T/C: stronger effect = lower value
# Method in brief: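 Spheroids combined tumor cells with HUVEC endothelial cells and human MSCs as stroma. AhR antagonists were paired with standard or investigational drugs, each dosed in half-log steps down from near clinical Cmax, or from 10 microM where Cmax was unknown.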
# [1] = second compound 0.1 µM, first compound 0.0316 µM
# [2] = second compound 0.1 µM, first compound 0.1 µM
# [3] = second compound 0.1 µM, first compound 0.316 µM
# [4] = second compound 0.1 µM, first compound 1 µM
# [5] = second compound 0.1 µM, first compound 3.16 µM
# [6] = second compound 0.1 µM, first compound 10 µM
# [7] = second compound 0.316 µM, first compound 0.0316 µM
# [8] = second compound 0.316 µM, first compound 0.1 µM
# [9] = second compound 0.316 µM, first compound 0.316 µM
# [10] = second compound 0.316 µM, first compound 1 µM
# [11] = second compound 0.316 µM, first compound 3.16 µM
# [12] = second compound 0.316 µM, first compound 10 µM
# [13] = second compound 1 µM, first compound 0.0316 µM
# [14] = second compound 1 µM, first compound 0.1 µM
# [15] = second compound 1 µM, first compound 0.316 µM
# [16] = second compound 1 µM, first compound 1 µM
# [17] = second compound 1 µM, first compound 3.16 µM
# [18] = second compound 1 µM, first compound 10 µM
# [19] = second compound 3.16 µM, first compound 0.0316 µM
# [20] = second compound 3.16 µM, first compound 0.1 µM
# [21] = second compound 3.16 µM, first compound 0.316 µM
# [22] = second compound 3.16 µM, first compound 1 µM
# [23] = second compound 3.16 µM, first compound 3.16 µM
# [24] = second compound 3.16 µM, first compound 10 µM
# [25] = second compound 10 µM, first compound 0.0316 µM
# [26] = second compound 10 µM, first compound 0.1 µM
# [27] = second compound 10 µM, first compound 0.316 µM
# [28] = second compound 10 µM, first compound 1 µM
# [29] = second compound 10 µM, first compound 3.16 µM
# [30] = second compound 10 µM, first compound 10 µM
# 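Note: spheroids exposed to agents for seven days before readout.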
# 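Throughout, for viability, T/C: percent of DMSO vehicle control luminescence viability.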
structure (smiles),measurement,setting,value
CC(C)CC(NC(=O)C(Cc1ccccc1)NC(=O)c1cnccn1)B(O)O (stereo not given) + Cc1ccccc1N=Nc1ccc(NC(=O)c2ccnn2C)c(C)c1,IC50,second compound 0.1 µM,0.00594 µM
same,IC50,second compound 0.316 µM,0.00586 µM
same,IC50,second compound 1 µM,0.00566 µM
same,IC50,second compound 3.16 µM,0.00519 µM
same,IC50,second compound 10 µM,0.00416 µM
same,"viability, T/C","second compound 0.1 µM, first compound 0.000949 µM",108%
same,"viability, T/C","second compound 0.1 µM, first compound 0.003 µM",135%
same,"viability, T/C","second compound 0.1 µM, first compound 0.00949 µM",0.86%
same,"viability, T/C","second compound 0.1 µM, first compound 0.03 µM",0.84%
same,"viability, T/C","second compound 0.1 µM, first compound 0.0949 µM",1.35%
same,"viability, T/C","second compound 0.1 µM, first compound 0.3 µM",0.12%
same,"viability, T/C","second compound 0.316 µM, first compound 0.000949 µM",118%
same,"viability, T/C","second compound 0.316 µM, first compound 0.003 µM",121%
same,"viability, T/C","second compound 0.316 µM, first compound 0.00949 µM",0.21%
same,"viability, T/C","second compound 0.316 µM, first compound 0.03 µM",0.02%
same,"viability, T/C","second compound 0.316 µM, first compound 0.0949 µM",0.02%
same,"viability, T/C","second compound 0.316 µM, first compound 0.3 µM",0.1%
same,"viability, T/C","second compound 1 µM, first compound 0.000949 µM",108%
same,"viability, T/C","second compound 1 µM, first compound 0.003 µM",115%
same,"viability, T/C","second compound 1 µM, first compound 0.00949 µM",0.18%
same,"viability, T/C","second compound 1 µM, first compound 0.03 µM",0.04%
same,"viability, T/C","second compound 1 µM, first compound 0.0949 µM",0.02%
same,"viability, T/C","second compound 1 µM, first compound 0.3 µM",0.11%
same,"viability, T/C","second compound 3.16 µM, first compound 0.000949 µM",100%
same,"viability, T/C","second compound 3.16 µM, first compound 0.003 µM",94.6%
same,"viability, T/C","second compound 3.16 µM, first compound 0.00949 µM",0.91%
same,"viability, T/C","second compound 3.16 µM, first compound 0.03 µM",0.03%
same,"viability, T/C","second compound 3.16 µM, first compound 0.0949 µM",0.09%
same,"viability, T/C","second compound 3.16 µM, first compound 0.3 µM",0.09%
same,"viability, T/C","second compound 10 µM, first compound 0.000949 µM",85%
same,"viability, T/C","second compound 10 µM, first compound 0.003 µM",69.6%
same,"viability, T/C","second compound 10 µM, first compound 0.00949 µM",0.28%
same,"viability, T/C","second compound 10 µM, first compound 0.03 µM",0.11%
same,"viability, T/C","second compound 10 µM, first compound 0.0949 µM",0.12%
same,"viability, T/C","second compound 10 µM, first compound 0.3 µM",0.16%
COc1cc(Nc2ncc3c(n2)-c2ccc(Cl)cc2C(c2c(F)cccc2OC)=NC3)ccc1C(=O)O + Cc1ccccc1N=Nc1ccc(NC(=O)c2ccnn2C)c(C)c1,IC50,second compound 0.1 µM,> 10 µM
same,IC50,second compound 0.316 µM,> 10 µM
same,IC50,second compound 1 µM,> 10 µM
same,IC50,second compound 3.16 µM,> 10 µM
same,IC50,second compound 10 µM,> 10 µM
same,"viability, T/C",[1],109%
same,"viability, T/C",[2],108%
same,"viability, T/C",[3],88.9%
same,"viability, T/C",[4],85.1%
same,"viability, T/C",[5],77.7%
same,"viability, T/C",[6],73%
same,"viability, T/C",[7],105%
same,"viability, T/C",[8],109%
same,"viability, T/C",[9],93.4%
same,"viability, T/C",[10],92.8%
same,"viability, T/C",[11],85.9%
same,"viability, T/C",[12],68.7%
same,"viability, T/C",[13],114%
same,"viability, T/C",[14],113%
same,"viability, T/C",[15],98.7%
same,"viability, T/C",[16],84.3%
same,"viability, T/C",[17],78.1%
same,"viability, T/C",[18],76.8%
same,"viability, T/C",[19],105%
same,"viability, T/C",[20],106%
same,"viability, T/C",[21],87.3%
same,"viability, T/C",[22],79.4%
same,"viability, T/C",[23],79.5%
same,"viability, T/C",[24],68.3%
same,"viability, T/C",[25],87.8%
same,"viability, T/C",[26],88.8%
same,"viability, T/C",[27],81.7%
same,"viability, T/C",[28],89.7%
same,"viability, T/C",[29],79.2%
same,"viability, T/C",[30],71.2%
NS(=O)(=O)OCC1CC(n2ccc3c(NC4CCc5ccccc54)ncnc32)CC1O (stereo not given) + Cc1ccccc1N=Nc1ccc(NC(=O)c2ccnn2C)c(C)c1,IC50,second compound 0.1 µM,3.02 µM
same,IC50,second compound 0.316 µM,2.53 µM
same,IC50,second compound 1 µM,1.97 µM
same,IC50,second compound 3.16 µM,1.03 µM
same,IC50,second compound 10 µM,0.484 µM
same,"viability, T/C",[1],104%
same,"viability, T/C",[2],110%
same,"viability, T/C",[3],124%
same,"viability, T/C",[4],98.5%
same,"viability, T/C",[5],48.5%
same,"viability, T/C",[6],16.3%
same,"viability, T/C",[7],102%
same,"viability, T/C",[8],113%
same,"viability, T/C",[9],120%
same,"viability, T/C",[10],90.3%
same,"viability, T/C",[11],40.9%
same,"viability, T/C",[12],16.5%
same,"viability, T/C",[13],101%
same,"viability, T/C",[14],115%
same,"viability, T/C",[15],109%
same,"viability, T/C",[16],77.7%
same,"viability, T/C",[17],31.1%
same,"viability, T/C",[18],15.3%
same,"viability, T/C",[19],105%
same,"viability, T/C",[20],110%
same,"viability, T/C",[21],78.8%
same,"viability, T/C",[22],54.2%
same,"viability, T/C",[23],20.7%
same,"viability, T/C",[24],12%
same,"viability, T/C",[25],73.8%
same,"viability, T/C",[26],80.2%
same,"viability, T/C",[27],56.5%
same,"viability, T/C",[28],35.2%
same,"viability, T/C",[29],13.6%
same,"viability, T/C",[30],12.1%
O=C(C=Cc1cccc(S(=O)(=O)Nc2ccccc2)c1)NO + Cc1ccccc1N=Nc1ccc(NC(=O)c2ccnn2C)c(C)c1,IC50,second compound 0.1 µM,3.99 µM
same,IC50,second compound 0.316 µM,4.23 µM
same,IC50,second compound 1 µM,4.26 µM
same,IC50,second compound 3.16 µM,3.75 µM
same,IC50,second compound 10 µM,3.25 µM
same,"viability, T/C",[1],104%
same,"viability, T/C",[2],107%
same,"viability, T/C",[3],109%
same,"viability, T/C",[4],111%
same,"viability, T/C",[5],61.7%
same,"viability, T/C",[6],3.76%
same,"viability, T/C",[7],105%
same,"viability, T/C",[8],114%
same,"viability, T/C",[9],111%
same,"viability, T/C",[10],106%
same,"viability, T/C",[11],65.2%
same,"viability, T/C",[12],5.12%
same,"viability, T/C",[13],97.9%
same,"viability, T/C",[14],109%
same,"viability, T/C",[15],111%
same,"viability, T/C",[16],105%
same,"viability, T/C",[17],66.2%
same,"viability, T/C",[18],3.95%
same,"viability, T/C",[19],96.8%
same,"viability, T/C",[20],95.6%
same,"viability, T/C",[21],104%
same,"viability, T/C",[22],96.5%
same,"viability, T/C",[23],58.1%
same,"viability, T/C",[24],3.54%
same,"viability, T/C",[25],87.2%
same,"viability, T/C",[26],95.4%
same,"viability, T/C",[27],88.7%
same,"viability, T/C",[28],79.6%
same,"viability, T/C",[29],51.3%
same,"viability, T/C",[30],3.79%

# Reference: PubChem BioAssay AID1919005 (Molecular Pharmacology Branch, DTP, NCI, 2023)
